# Results taken from patent US20230122344A1, “ANTAGONISTS OF THE MUSCARINIC ACETYLCHOLINE RECEPTOR M4” (Vanderbilt University, priority 2019, published 2023).
# Molecular target: T1, Human M4 (Homo sapiens, UniProt P08173)
# T1 construct: expressed in transfected cells; host or cells: CHO-K1 (ATCC), co-transfected with chimeric G protein Gqi5
# T1 sequence (P08173 1-479): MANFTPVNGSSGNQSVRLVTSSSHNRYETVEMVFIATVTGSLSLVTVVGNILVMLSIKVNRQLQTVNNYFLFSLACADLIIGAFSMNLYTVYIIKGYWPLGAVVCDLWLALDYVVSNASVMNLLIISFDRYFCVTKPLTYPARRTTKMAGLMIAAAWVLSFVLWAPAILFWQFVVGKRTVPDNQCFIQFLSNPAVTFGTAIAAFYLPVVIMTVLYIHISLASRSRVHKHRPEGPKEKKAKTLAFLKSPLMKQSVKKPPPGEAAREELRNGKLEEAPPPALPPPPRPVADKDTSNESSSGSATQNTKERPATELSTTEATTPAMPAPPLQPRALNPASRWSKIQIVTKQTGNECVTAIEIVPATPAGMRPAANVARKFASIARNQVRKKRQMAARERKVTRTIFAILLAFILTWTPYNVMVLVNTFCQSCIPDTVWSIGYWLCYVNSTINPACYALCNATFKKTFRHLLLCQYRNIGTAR
# Test: mAChR M4 cell-based functional assay (calcium flux, antagonism of EC80 acetylcholine response)
# Details: M4/Gqi5/CHO-K1 cells; for remaining activity at 30 µM: CHO-K1, % ACh maximum at 30 μM, read-out: Human M4 Emin; for IC50: decrease of response elicited by EC80 acetylcholine
# Outline: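 CHO-K1 cells stably expressing human or rat M4 with Gqi5, Fluo-4 loaded; calcium measured by fluorescence ratio on FDSS. Compound added, then EC20 acetylcholine at 143 s and EC80 at 268 s; IC50 from decrease of EC80 response, four-parameter logistic fit.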
smiles,measurement,value
"Cc1c(-c2cc(F)ccc2F)nnc(N[C@H]2C[C@@H]3CN(C[C@H]4CC5CCC4O5)C[C@@H]3C2)c1C#N (stereo partly drawn) [compound 66, 3-(((3aR,5s,6aS)-2-(((2R)-7-oxabicyclo[2.2.1]heptan-2-yl)methyl)octahydrocyclopenta[c]pyrrol-5-yl)amino)-6-(2,5-difluorophenyl)-5-methylpyridazine-4-carbonitrile]",remaining activity at 30 µM,3%
same,IC50,17.9 nM
"Cc1c(-c2cc(F)ccc2Cl)nnc(N[C@H]2C[C@@H]3CN(CC4CCOCC4)C[C@@H]3C2)c1C#N [compound 67, 6-(2-chloro-5-fluorophenyl)-5-methyl-3-(((3aR,5s,6aS)-2-((tetrahydro-2H-pyran-4-yl)methyl)octahydrocyclopenta[c]pyrrol-5-yl)amino)pyridazine-4-carbonitrile]",remaining activity at 30 µM,2%
same,IC50,0.83 nM
"Cc1c(-c2ccccc2F)nnc(N[C@H]2C[C@@H]3CN(CC4CCOCC4)C[C@@H]3C2)c1C#N [compound 68, 6-(2-fluorophenyl)-5-methyl-3-(((3aR,5s,6aS)-2-((tetrahydro-2H-pyran-4-yl)methyl)octahydrocyclopenta[c]pyrrol-5-yl)amino)pyridazine-4-carbonitrile]",remaining activity at 30 µM,3%
same,IC50,0.97 nM
"Cc1c(-c2cccc(F)c2)nnc(N[C@H]2C[C@@H]3CN(CC4CCOCC4)C[C@@H]3C2)c1C#N [compound 69, 6-(3-fluorophenyl)-5-methyl-3-(((3aR,5s,6aS)-2-((tetrahydro-2H-pyran-4-yl)methyl)octahydrocyclopenta[c]pyrrol-5-yl)amino)pyridazine-4-carbonitrile]",remaining activity at 30 µM,3%
same,IC50,8.42 nM
"[2H]C([2H])(C1CCOCC1)N1C[C@H]2C[C@H](Nc3nnc(-c4ccc(F)cc4)c(C)c3C)C[C@H]2C1 [compound 70, (3aR,5s,6aS)-N-(6-(4-fluorophenyl)-4,5-dimethylpyridazin-3-yl)-2-((tetrahydro-2H-pyran-4-yl)methyl-d2)octahydrocyclopenta[c]pyrrol-5-amine]",remaining activity at 30 µM,11%
same,IC50,24.1 nM
"[2H]C([2H])(C1CCOCC1)N1C[C@H]2C[C@H](Nc3nnc(-c4ccc5ccccc5c4)c(C)c3C)C[C@H]2C1 [compound 71, (3aR,5s,6aS)-N-(4,5-dimethyl-6-(naphthalen-2-yl)pyridazin-3-yl)-2-((tetrahydro-2H-pyran-4-yl)methyl-d2)octahydrocyclopenta[c]pyrrol-5-amine]",remaining activity at 30 µM,2%
same,IC50,12.7 nM
"Cc1c(-c2ccc3nn(C)cc3c2)nnc(N[C@H]2C[C@@H]3CN(CC4CCOCC4)C[C@@H]3C2)c1C#N [compound 72, 5-methyl-6-(2-methyl-2H-indazol-5-yl)-3-(((3aR,5s,6aS)-2-((tetrahydro-2H-pyran-4-yl)methyl)octahydrocyclopenta[c]pyrrol-5-yl)amino)pyridazine-4-carbonitrile]",remaining activity at 30 µM,4%
same,IC50,0.91 nM
"Cc1c(-c2ccc(F)cc2)nnc(N[C@H]2C[C@@H]3CN(CC4CCOCC4)C[C@@H]3C2)c1C#N [compound 73, 6-(4-fluorophenyl)-5-methyl-3-(((3aR,5s,6aS)-2-((tetrahydro-2H-pyran-4-yl)methyl)octahydrocyclopenta[c]pyrrol-5-yl)amino)pyridazine-4-carbonitrile]",remaining activity at 30 µM,4%
same,IC50,3.43 nM
"[2H]C([2H])(C1CCOCC1)N1C[C@H]2C[C@H](Nc3nnc(-c4cc(F)ccc4C)c(C)c3C(F)(F)F)C[C@H]2C1 [compound 74, (3aR,5s,6aS)-N-(6-(5-fluoro-2-methylphenyl)-5-methyl-4-(trifluoromethyl)pyridazin-3-yl)-2-((tetrahydro-2H-pyran-4-yl)methyl-d2)octahydrocyclopenta[c]pyrrol-5-amine]",remaining activity at 30 µM,2%
same,IC50,159 nM
